Measurements reported in patent publication US20140343000A1 (priority 2011, published 2014).

These compounds were tested on recombinant NL4-3 virus (Renilla luciferase in nef, Gag P373S; NLRluc) in MT-2 cells (assay: whole plant or invertebrate). Conditions: Renilla, NL43, luciferase activity in cells infected for 4-5 days with NLRluc recombinants, serial dilutions of inhibitor; class symbols (key in Table 1); read-out: EC50.
Format: cell-based, HIV
In short: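 MT-2 cells infected 4–5 days with NL4-3 carrying Renilla luciferase in nef and Gag P373S, with serial dilutions of inhibitor present. Antiviral activity quantified by luciferase activity, using Dual Luciferase reagents premixed with lysis buffer and read immediately.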

Which EC50 does the source give for C=C(C)[C@@H]1CC[C@]2(NCCN3CCN(S(=O)(=O)CCCC)CC3)CC[C@]3(C)[C@H](CC[C@@H]4[C@@]5(C)CC=C(c6ccc(C(=O)O)cc6)C(C)(C)[C@@H]5CC[C@]43C)[C@@H]12 [Example B39, 4-((1R,3aS,5aR,5bR,7aR,11aS,11bR,13aR,13bR)-3a-((2-(4-(butylsulfonyl)piperazin-1-yl)ethyl)amino)-5a,5b,8,8,11a-pentamethyl-1-(prop-1-en-2-yl)-2,3,3a,4,5,5a,5b,6,7,7a,8,11,11a,11b,12,13,13a,13b-octadecahydro-1H-cyclopenta[a]chrysen-9-yl)benzoic acid] here?
Its EC50 is < 100 nM.

Which EC50 does the source give for C=C(C)[C@@H]1CC[C@]2(NCCN3CCN(S(=O)(=O)c4ccc(CC)cc4)CC3)CC[C@]3(C)[C@H](CC[C@@H]4[C@@]5(C)CC=C(c6ccc(C(=O)O)cc6)C(C)(C)[C@@H]5CC[C@]43C)[C@@H]12 [Example B40, 4-((1R,3aS,5aR,5bR,7aR,11aS,11bR,13aR,13bR)-3a-((2-(4-((4-ethylphenyl)sulfonyl)piperazin-1-yl)ethyl)amino)-5a,5b,8,8,11a-pentamethyl-1-(prop-1-en-2-yl)-2,3,3a,4,5,5a,5b,6,7,7a,8,11,11a,11b,12,13,13a,13b-octadecahydro-1H-cyclopenta[a]chrysen-9-yl)benzoic acid] here?
Its EC50 is < 100 nM.

With C=C(C)[C@@H]1CC[C@]2(NCCN3CCN(S(=O)(=O)Cc4ccccc4)CC3)CC[C@]3(C)[C@H](CC[C@@H]4[C@@]5(C)CC=C(c6ccc(C(=O)O)cc6)C(C)(C)[C@@H]5CC[C@]43C)[C@@H]12 [Example B41, 4-((1R,3aS,5aR,5bR,7aR,11aS,11bR,13aR,13bR)-3a-((2-(4-(benzylsulfonyl)piperazin-1-yl)ethyl)amino)-5a,5b,8,8,11a-pentamethyl-1-(prop-1-en-2-yl)-2,3,3a,4,5,5a,5b,6,7,7a,8,11,11a,11b,12,13,13a,13b-octadecahydro-1H-cyclopenta[a]chrysen-9-yl)benzoic acid] as the compound, how does the EC50 read?
Its EC50 is < 100 nM.

For C=C(C)[C@@H]1CC[C@]2(NCCN3CCN(S(=O)(=O)CS(C)(=O)=O)CC3)CC[C@]3(C)[C@H](CC[C@@H]4[C@@]5(C)CC=C(c6ccc(C(=O)O)cc6)C(C)(C)[C@@H]5CC[C@]43C)[C@@H]12 [Example B42, 4-((1R,3aS,5aR,5bR,7aR,11aS,11bR,13aR,13bR)-5a,5b,8,8,11a-pentamethyl-3a-((2-(4-(((methylsulfonyl)methyl)sulfonyl)piperazin-1-yl)ethyl)amino)-1-(prop-1-en-2-yl)-2,3,3a,4,5,5a,5b,6,7,7a,8,11,11a,11b,12,13,13a,13b-octadecahydro-1H-cyclopenta[a]chrysen-9-yl)benzoic acid], which EC50 is on record?
The EC50 was < 100 nM.

C=C(C)[C@@H]1CC[C@]2(NCCN3CCN(S(=O)(=O)c4cn(C)cn4)CC3)CC[C@]3(C)[C@H](CC[C@@H]4[C@@]5(C)CC=C(c6ccc(C(=O)O)cc6)C(C)(C)[C@@H]5CC[C@]43C)[C@@H]12 [Example B43, 4-((1R,3aS,5aR,5bR,7aR,11aS,11bR,13aR,13bR)-5a,5b,8,8,11a-pentamethyl-3a-((2-(4-((1-methyl-1H-imidazol-4-yl)sulfonyl)piperazin-1-yl)ethyl)amino)-1-(prop-1-en-2-yl)-2,3,3a,4,5,5a,5b,6,7,7a,8,11,11a,11b,12,13,13a,13b-octadecahydro-1H-cyclopenta[a]chrysen-9-yl)benzoic acid] was tested. Which EC50 did it give?
The EC50 was < 100 nM.

How did the EC50 turn out when C=C(C)[C@@H]1CC[C@]2(NCCN3CCN(S(=O)(=O)c4ccccc4)CC3)CC[C@]3(C)[C@H](CC[C@@H]4[C@@]5(C)CC=C(c6ccc(C(=O)O)cc6)C(C)(C)[C@@H]5CC[C@]43C)[C@@H]12 [Example B44, 4-((1R,3aS,5aR,5bR,7aR,11aS,11bR,13aR,13bR)-5a,5b,8,8,11a-pentamethyl-3a-((2-(4-(phenylsulfonyl)piperazin-1-yl)ethyl)amino)-1-(prop-1-en-2-yl)-2,3,3a,4,5,5a,5b,6,7,7a,8,11,11a,11b,12,13,13a,13b-octadecahydro-1H-cyclopenta[a]chrysen-9-yl)benzoic acid] was run?
The EC50 was < 100 nM.

C=C(C)[C@@H]1CC[C@]2(NCCN3CCN(S(=O)(=O)c4ccc(Cl)cc4)CC3)CC[C@]3(C)[C@H](CC[C@@H]4[C@@]5(C)CC=C(c6ccc(C(=O)O)cc6)C(C)(C)[C@@H]5CC[C@]43C)[C@@H]12 [Example B46, 4-((1R,3aS,5aR,5bR,7aR,11aS,11bR,13aR,13bR)-3a-((2-(4-((4-chlorophenyl)sulfonyl)piperazin-1-yl)ethyl)amino)-5a,5b,8,8,11a-pentamethyl-1-(prop-1-en-2-yl)-2,3,3a,4,5,5a,5b,6,7,7a,8,11,11a,11b,12,13,13a,13b-octadecahydro-1H-cyclopenta[a]chrysen-9-yl)benzoic acid] was tested. Which EC50 did it give?
The EC50 was < 100 nM.

For C=C(C)[C@@H]1CC[C@]2(NCCN3CCN(S(=O)(=O)c4ccc(OC)cc4)CC3)CC[C@]3(C)[C@H](CC[C@@H]4[C@@]5(C)CC=C(c6ccc(C(=O)O)cc6)C(C)(C)[C@@H]5CC[C@]43C)[C@@H]12 [Example B47, 4-((1R,3aS,5aR,5bR,7aR,11aS,11bR,13aR,13bR)-3a-((2-(4-((4-methoxyphenyl)sulfonyl)piperazin-1-yl)ethyl)amino)-5a,5b,8,8,11a-pentamethyl-1-(prop-1-en-2-yl)-2,3,3a,4,5,5a,5b,6,7,7a,8,11,11a,11b,12,13,13a,13b-octadecahydro-1H-cyclopenta[a]chrysen-9-yl)benzoic acid], which EC50 is on record?
The EC50 was < 100 nM.

C=C(C)[C@@H]1CC[C@]2(NCCN3CCN(S(=O)(=O)c4ccc(C)cc4)CC3)CC[C@]3(C)[C@H](CC[C@@H]4[C@@]5(C)CC=C(c6ccc(C(=O)O)cc6)C(C)(C)[C@@H]5CC[C@]43C)[C@@H]12 [Example B48, 4-((1R,3aS,5aR,5bR,7aR,11aS,11bR,13aR,13bR)-5a,5b,8,8,11a-pentamethyl-1-(prop-1-en-2-yl)-3a-((2-(4-tosylpiperazin-1-yl)ethyl)amino)-2,3,3a,4,5,5a,5b,6,7,7a,8,11,11a,11b,12,13,13a,13b-octadecahydro-1H-cyclopenta[a]chrysen-9-yl)benzoic acid] was tested. Which EC50 did it give?
The EC50 was < 100 nM.

Which EC50 does the source give for C=C(C)[C@@H]1CC[C@]2(NCCN3CCN(S(=O)(=O)c4cccc5ccccc45)CC3)CC[C@]3(C)[C@H](CC[C@@H]4[C@@]5(C)CC=C(c6ccc(C(=O)O)cc6)C(C)(C)[C@@H]5CC[C@]43C)[C@@H]12 [Example B49, 4-((1R,3aS,5aR,5bR,7aR,11aS,11bR,13aR,13bR)-5a,5b,8,8,11a-pentamethyl-3a-((2-(4-(naphthalen-1-ylsulfonyl)piperazin-1-yl)ethyl)amino)-1-(prop-1-en-2-yl)-2,3,3a,4,5,5a,5b,6,7,7a,8,11,11a,11b,12,13,13a,13b-octadecahydro-1H-cyclopenta[a]chrysen-9-yl)benzoic acid] here?
Its EC50 is < 100 nM.

Same assay, conditions: Renilla, NL43, luciferase activity in cells infected for 4-5 days with NLRluc recombinants, serial dilutions of inhibitor; numeric values; read-out: EC50

With C=C(C)[C@@H]1CC[C@]2(NCCN3CCN(S(=O)(=O)c4cccc(OC)c4)CC3)CC[C@]3(C)[C@H](CC[C@@H]4[C@@]5(C)CC=C(c6ccc(C(=O)O)cc6)C(C)(C)[C@@H]5CC[C@]43C)[C@@H]12 [Example B45, 4-((1R,3aS,5aR,5bR,7aR,11aS,11bR,13aR,13bR)-3a-((2-(4-((3-methoxyphenyl)sulfonyl)piperazin-1-yl)ethyl)amino)-5a,5b,8,8,11a-pentamethyl-1-(prop-1-en-2-yl)-2,3,3a,4,5,5a,5b,6,7,7a,8,11,11a,11b,12,13,13a,13b-octadecahydro-1H-cyclopenta[a]chrysen-9-yl)benzoic acid] as the compound, how does the EC50 read?
The EC50 was 4 nM.
